Source: patent publication US10597388B2, “Pyridazinone herbicides” (FMC CORPORATION, priority 2014, dated 2020)

Key:
Assay in all cases: Test C greenhouse herbicide test, pre- and postemergence
Type in all cases: in vivo
[1] = system: blackgrass (Alopecurus myosuroides)
Summary of the method: (§1)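 Percent-control ratings (0 none, 100 complete) came from visual comparison with controls held alongside in the greenhouse for 13–15 d. Treatments covered soil application at sowing and foliar application to young plants 2–18 cm tall.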

[2] = system: corn (Zea mays)
Summary of the method: as §1

[3] = system: crabgrass, large (large crabgrass, Digitaria sanguinalis)
Summary of the method: as §1

[4] = system: foxtail, giant (giant foxtail, Setaria faberii)
Summary of the method: as §1

[5] = system: galium (catchweed bedstraw, Galium aparine)
Summary of the method: as §1

[6] = system: johnsongrass (Sorghum halepense)
Summary of the method: as §1

[7] = system: lambsquarters (Chenopodium album)
Summary of the method: as §1

[8] = system: morningglory (Ipomoea coccinea)
Summary of the method: as §1

[9] = system: nutsedge, yellow (yellow nutsedge, Cyperus esculentus)
Summary of the method: as §1

[10] = system: oilseed rape (Brassica napus)
Summary of the method: as §1

[11] = system: pigweed (Amaranthus retroflexus)
Summary of the method: as §1

[12] = system: ryegrass, Italian (Italian ryegrass, Lolium multiflorum)
Summary of the method: as §1

[13] = system: soybean (Glycine max)
Summary of the method: as §1

[14] = system: velvetleaf (Abutilon theophrasti)
Summary of the method: as §1

[15] = system: waterhemp (common waterhemp, Amaranthus rudis)
Summary of the method: as §1

[16] = system: wheat (winter wheat, Triticum aestivum)
Summary of the method: as §1

[17] = Postemergence, 31 g ai/ha, 0 to 100 scale (0 no effect, 100 complete control)
[18] = Postemergence, 125 g ai/ha, scale 0 to 100, 0 is no effect, 100 is complete control
[19] = Postemergence, 250 g ai/ha, scale 0 to 100, 0 no effect, 100 complete control, 13 to 15 d
[20] = Preemergence, 31 g ai/ha, scale 0 to 100, 0 is no effect, 100 is complete control
[21] = Preemergence, 62 g ai/ha, scale 0 to 100, 0 is no effect, 100 is complete control
[22] = Preemergence, 125 g ai/ha, scale 0 to 100, 0 is no effect, 100 is complete control
[23] = Preemergence, 250 g ai/ha, scale 0 to 100 (0 no effect, 100 complete control)
[24] = postemergence, 62 g ai/ha, scale 0 to 100, 0 no effect, 100 complete control

Cc1ccc2ccc(C)c(-c3c(O)c(C)nn(C)c3=O)c2c1 [Compound 60]
Blackgrass plant response rating [1, 17]: 50
Plant response rating, Blackgrass [1, 18]: 85
Plant response rating, Blackgrass [1, 19]: 90
Plant response rating, Blackgrass [1, 20]: 90
Plant response rating, Blackgrass [1, 21]: 90
Plant response rating, Blackgrass [1, 22]: 90
Blackgrass plant response rating [1, 23]: 90
Blackgrass plant response rating [1, 24]: 60
Corn plant response rating [2, 17]: 10
Plant response rating, Corn [2, 18]: 30
Plant response rating, Corn [2, 19]: 35
Plant response rating, Corn [2, 20]: 0
Plant response rating, Corn [2, 21]: 10
Plant response rating, Corn [2, 22]: 30
Corn plant response rating [2, 23]: 45
Corn plant response rating [2, 24]: 25
Crabgrass, Large plant response rating [3, 17]: 15
Plant response rating, Crabgrass, Large [3, 18]: 50
Plant response rating, Crabgrass, Large [3, 19]: 65
Plant response rating, Crabgrass, Large [3, 20]: 20
Plant response rating, Crabgrass, Large [3, 21]: 75
Plant response rating, Crabgrass, Large [3, 22]: 85
Crabgrass, Large plant response rating [3, 23]: 95
Crabgrass, Large plant response rating [3, 24]: 35
Foxtail, Giant plant response rating [4, 17]: 45
Plant response rating, Foxtail, Giant [4, 18]: 70
Plant response rating, Foxtail, Giant [4, 19]: 90
Plant response rating, Foxtail, Giant [4, 20]: 75
Plant response rating, Foxtail, Giant [4, 21]: 85
Plant response rating, Foxtail, Giant [4, 22]: 100
Foxtail, Giant plant response rating [4, 23]: 100
Foxtail, Giant plant response rating [4, 24]: 60
Galium plant response rating [5, 17]: 100
Plant response rating, Galium [5, 18]: 100
Plant response rating, Galium [5, 19]: 100
Plant response rating, Galium [5, 20]: 90
Plant response rating, Galium [5, 21]: 95
Plant response rating, Galium [5, 22]: 98
Galium plant response rating [5, 23]: 100
Galium plant response rating [5, 24]: 100
Johnsongrass plant response rating [6, 17]: 5
Plant response rating, Johnsongrass [6, 18]: 55
Plant response rating, Johnsongrass [6, 19]: 45
Plant response rating, Johnsongrass [6, 20]: 5
Plant response rating, Johnsongrass [6, 21]: 20
Plant response rating, Johnsongrass [6, 22]: 40
Johnsongrass plant response rating [6, 23]: 60
Johnsongrass plant response rating [6, 24]: 35
Lambsquarters plant response rating [7, 17]: 85
Plant response rating, Lambsquarters [7, 18]: 95
Plant response rating, Lambsquarters [7, 19]: 100
Plant response rating, Lambsquarters [7, 20]: 80
Plant response rating, Lambsquarters [7, 21]: 85
Plant response rating, Lambsquarters [7, 22]: 95
Lambsquarters plant response rating [7, 23]: 90
Lambsquarters plant response rating [7, 24]: 90
Morningglory plant response rating [8, 17]: 90
Plant response rating, Morningglory [8, 18]: 100
Plant response rating, Morningglory [8, 19]: 100
Plant response rating, Morningglory [8, 20]: 85
Plant response rating, Morningglory [8, 21]: 98
Plant response rating, Morningglory [8, 22]: 98
Morningglory plant response rating [8, 23]: 100
Morningglory plant response rating [8, 24]: 98
Nutsedge, Yellow plant response rating [9, 17]: 85
Plant response rating, Nutsedge, Yellow [9, 18]: 90
Plant response rating, Nutsedge, Yellow [9, 19]: 95
Plant response rating, Nutsedge, Yellow [9, 20]: 45
Plant response rating, Nutsedge, Yellow [9, 21]: 45
Plant response rating, Nutsedge, Yellow [9, 22]: 85
Nutsedge, Yellow plant response rating [9, 23]: 85
Nutsedge, Yellow plant response rating [9, 24]: 85
Oilseed Rape plant response rating [10, 17]: 5
Plant response rating, Oilseed Rape [10, 18]: 85
Plant response rating, Oilseed Rape [10, 19]: 80
Plant response rating, Oilseed Rape [10, 20]: 30
Plant response rating, Oilseed Rape [10, 21]: 85
Plant response rating, Oilseed Rape [10, 22]: 90
Oilseed Rape plant response rating [10, 23]: 90
Oilseed Rape plant response rating [10, 24]: 5
Pigweed plant response rating [11, 17]: 85
Plant response rating, Pigweed [11, 18]: 95
Plant response rating, Pigweed [11, 19]: 98
Plant response rating, Pigweed [11, 20]: 100
Plant response rating, Pigweed [11, 21]: 100
Plant response rating, Pigweed [11, 22]: 100
Pigweed plant response rating [11, 23]: 100
Pigweed plant response rating [11, 24]: 85
Ryegrass, Italian plant response rating [12, 17]: 90
Plant response rating, Ryegrass, Italian [12, 18]: 95
Plant response rating, Ryegrass, Italian [12, 19]: 95
Plant response rating, Ryegrass, Italian [12, 20]: 90
Plant response rating, Ryegrass, Italian [12, 21]: 95
Plant response rating, Ryegrass, Italian [12, 22]: 95
Ryegrass, Italian plant response rating [12, 23]: 95
Ryegrass, Italian plant response rating [12, 24]: 90
Soybean plant response rating [13, 17]: 15
Plant response rating, Soybean [13, 18]: 40
Plant response rating, Soybean [13, 19]: 50
Plant response rating, Soybean [13, 20]: 0
Plant response rating, Soybean [13, 21]: 45
Plant response rating, Soybean [13, 22]: 65
Soybean plant response rating [13, 23]: 75
Soybean plant response rating [13, 24]: 20
Velvetleaf plant response rating [14, 17]: 40
Plant response rating, Velvetleaf [14, 18]: 90
Plant response rating, Velvetleaf [14, 19]: 95
Plant response rating, Velvetleaf [14, 20]: 75
Plant response rating, Velvetleaf [14, 21]: 85
Plant response rating, Velvetleaf [14, 22]: 95
Velvetleaf plant response rating [14, 23]: 98
Velvetleaf plant response rating [14, 24]: 85
Waterhemp plant response rating [15, 17]: 65
Plant response rating, Waterhemp [15, 18]: 98
Plant response rating, Waterhemp [15, 19]: 98
Plant response rating, Waterhemp [15, 20]: 100
Plant response rating, Waterhemp [15, 21]: 100
Plant response rating, Waterhemp [15, 22]: 100
Waterhemp plant response rating [15, 23]: 100
Waterhemp plant response rating [15, 24]: 90
Wheat plant response rating [16, 17]: 5
Plant response rating, Wheat [16, 18]: 30
Plant response rating, Wheat [16, 19]: 15
Plant response rating, Wheat [16, 20]: 10
Plant response rating, Wheat [16, 21]: 40
Plant response rating, Wheat [16, 22]: 45
Wheat plant response rating [16, 23]: 70
Wheat plant response rating [16, 24]: 5
